Measurements: the supplement of paper PMC10307832

Experiments:
Test in all cases: relative viability (nuclei count vs DMSO), 5 days (fraction); higher = more cells survive
HOP-62 = tested on: HOP-62
How it was run: (§1)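 Relative viability divides the nuclei count in treated wells by that in vehicle wells. Lung cancer cell lines were seeded in 1536-well plates, dosed by pin tool the next day, and fixed and stained after 5 days in one step with final 0.05% Triton X-100, 1% formaldehyde and 1 ug/ml Hoechst. Dosing was a single drug or a fixed anchor-drug dose plus five library-drug doses (not always all listed) in √10 steps, and values are medians of duplicate plates imaged at 4×.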

NCI-H647 = tested on: NCI-H647
How it was run: as §1

LCLC-103H = tested on: LCLC-103H
How it was run: as §1

NCI-H2405 = tested on: NCI-H2405
How it was run: as §1

NCI-H1793 = tested on: NCI-H1793
How it was run: as §1

NCI-H1437 = tested on: NCI-H1437
How it was run: as §1

BEN = tested on: BEN
How it was run: as §1

HCC-44 = tested on: HCC-44
How it was run: as §1

NCI-H1395 = tested on: NCI-H1395
How it was run: as §1

LCLC-97TM1 = tested on: LCLC-97TM1
How it was run: as §1

NCI-H727 = tested on: NCI-H727
How it was run: as §1

HCC-827 = tested on: HCC-827
How it was run: as §1

RERF-LC-KJ = tested on: RERF-LC-KJ
How it was run: as §1

CAL-12T = tested on: CAL-12T
How it was run: as §1

LXF-289 = tested on: LXF-289
How it was run: as §1

201T = tested on: 201T
How it was run: as §1

NCI-H2228 = tested on: NCI-H2228
How it was run: as §1

SK-LU-1 = tested on: SK-LU-1
How it was run: as §1

NCI-H322M = tested on: NCI-H322M
How it was run: as §1

NCI-H3122 = tested on: NCI-H3122
How it was run: as §1

NCI-H1944 = tested on: NCI-H1944
How it was run: as §1

NCI-H2087 = tested on: NCI-H2087
How it was run: as §1

SMILES: NC(=O)Nc1cc(-c2cccc(F)c2)sc1C(=O)N[C@H]1CCCNC1 [AZD7762] + Cc1nc(NC(=O)N2CCC[C@H]2C(N)=O)sc1-c1ccnc(C(C)(C)C(F)(F)F)c1 [Alpelisib] (partner 2 µM)
- relative viability (HOP-62; first compound 0.01 µM): 0.918
- relative viability (HOP-62; first compound 0.03162 µM): 1.22
- relative viability (HOP-62; first compound 0.1 µM): 0.836
- relative viability (HOP-62; first compound 0.3162 µM): 1.04
- relative viability (HOP-62; first compound 1 µM): 1.36
- relative viability (NCI-H647; first compound 0.01 µM): 1.28
- relative viability (NCI-H647; first compound 0.03162 µM): 1.02
- relative viability (NCI-H647; first compound 0.1 µM): 1.04
- relative viability (NCI-H647; first compound 0.3162 µM): 0.61
- relative viability (NCI-H647; first compound 1 µM): 0.104
- relative viability (LCLC-103H; first compound 0.01 µM): 1.01
- relative viability (LCLC-103H; first compound 0.03162 µM): 0.962
- relative viability (LCLC-103H; first compound 0.1 µM): 0.889
- relative viability (LCLC-103H; first compound 0.3162 µM): 0.977
- relative viability (LCLC-103H; first compound 1 µM): 0.9
- relative viability (NCI-H2405; first compound 0.01 µM): 0.808
- relative viability (NCI-H2405; first compound 0.03162 µM): 0.79
- relative viability (NCI-H2405; first compound 0.1 µM): 0.671
- relative viability (NCI-H2405; first compound 0.3162 µM): 0.445
- relative viability (NCI-H2405; first compound 1 µM): 0.27
- relative viability (NCI-H1793; first compound 0.01 µM): 0.835
- relative viability (NCI-H1793; first compound 0.03162 µM): 0.795
- relative viability (NCI-H1793; first compound 0.1 µM): 0.627
- relative viability (NCI-H1793; first compound 0.3162 µM): 0.854
- relative viability (NCI-H1793; first compound 1 µM): 0.524
- relative viability (NCI-H1437; first compound 0.01 µM): 0.995
- relative viability (NCI-H1437; first compound 0.03162 µM): 0.962
- relative viability (NCI-H1437; first compound 0.1 µM): 1
- relative viability (NCI-H1437; first compound 0.3162 µM): 1
- relative viability (NCI-H1437; first compound 1 µM): 1
- relative viability (BEN; first compound 0.01 µM): 1.21
- relative viability (BEN; first compound 0.03162 µM): 0.992
- relative viability (BEN; first compound 0.1 µM): 0.883
- relative viability (BEN; first compound 0.3162 µM): 1.06
- relative viability (BEN; first compound 1 µM): 0.845
- relative viability (HCC-44; first compound 0.01 µM): 0.818
- relative viability (HCC-44; first compound 0.03162 µM): 0.751
- relative viability (HCC-44; first compound 0.1 µM): 0.831
- relative viability (HCC-44; first compound 0.3162 µM): 0.755
- relative viability (HCC-44; first compound 1 µM): 0.952
- relative viability (NCI-H1395; first compound 0.01 µM): 1.2
- relative viability (NCI-H1395; first compound 0.03162 µM): 1.1
- relative viability (NCI-H1395; first compound 0.1 µM): 1.16
- relative viability (NCI-H1395; first compound 0.3162 µM): 0.649
- relative viability (NCI-H1395; first compound 1 µM): 0.436
- relative viability (LCLC-97TM1; first compound 0.01 µM): 0.292
- relative viability (LCLC-97TM1; first compound 0.03162 µM): 0.272
- relative viability (LCLC-97TM1; first compound 0.1 µM): 0.314
- relative viability (LCLC-97TM1; first compound 0.3162 µM): 0.278
- relative viability (LCLC-97TM1; first compound 1 µM): 0.298
- relative viability (NCI-H727; first compound 0.01 µM): 0.583
- relative viability (NCI-H727; first compound 0.03162 µM): 0.561
- relative viability (NCI-H727; first compound 0.1 µM): 0.471
- relative viability (NCI-H727; first compound 0.3162 µM): 0.466
- relative viability (NCI-H727; first compound 1 µM): 0.218
- relative viability (HCC-827; first compound 0.01 µM): 1.01
- relative viability (HCC-827; first compound 0.03162 µM): 1.02
- relative viability (HCC-827; first compound 0.1 µM): 1
- relative viability (HCC-827; first compound 0.3162 µM): 0.985
- relative viability (HCC-827; first compound 1 µM): 0.659
- relative viability (RERF-LC-KJ; first compound 0.01 µM): 0.792
- relative viability (RERF-LC-KJ; first compound 0.03162 µM): 0.773
- relative viability (RERF-LC-KJ; first compound 0.1 µM): 0.787
- relative viability (RERF-LC-KJ; first compound 0.3162 µM): 0.924
- relative viability (RERF-LC-KJ; first compound 1 µM): 0.914
- relative viability (CAL-12T; first compound 0.01 µM): 1.3
- relative viability (CAL-12T; first compound 0.03162 µM): 1.18
- relative viability (CAL-12T; first compound 0.1 µM): 1.24
- relative viability (CAL-12T; first compound 0.3162 µM): 0.955
- relative viability (CAL-12T; first compound 1 µM): 0.155
- relative viability (LXF-289; first compound 0.01 µM): 1.01
- relative viability (LXF-289; first compound 0.03162 µM): 1.07
- relative viability (LXF-289; first compound 0.1 µM): 1.12
- relative viability (LXF-289; first compound 0.3162 µM): 1.04
- relative viability (LXF-289; first compound 1 µM): 1.14
- relative viability (201T; first compound 0.01 µM): 1.01
- relative viability (201T; first compound 0.03162 µM): 1.05
- relative viability (201T; first compound 0.1 µM): 1.02
- relative viability (201T; first compound 0.3162 µM): 1.08
- relative viability (201T; first compound 1 µM): 1.11
- relative viability (NCI-H2228; first compound 0.01 µM): 0.886
- relative viability (NCI-H2228; first compound 0.03162 µM): 0.666
- relative viability (NCI-H2228; first compound 0.1 µM): 0.8
- relative viability (NCI-H2228; first compound 0.3162 µM): 0.407
- relative viability (NCI-H2228; first compound 1 µM): 0.19
- relative viability (SK-LU-1; first compound 0.01 µM): 1.14
- relative viability (SK-LU-1; first compound 0.03162 µM): 0.72
- relative viability (SK-LU-1; first compound 0.1 µM): 0.329
- relative viability (SK-LU-1; first compound 0.3162 µM): 0.207
- relative viability (SK-LU-1; first compound 1 µM): 0.236
- relative viability (NCI-H322M; first compound 0.01 µM): 0.776
- relative viability (NCI-H322M; first compound 0.03162 µM): 0.906
- relative viability (NCI-H322M; first compound 0.1 µM): 0.819
- relative viability (NCI-H322M; first compound 0.3162 µM): 0.94
- relative viability (NCI-H322M; first compound 1 µM): 0.906
- relative viability (NCI-H3122; first compound 0.01 µM): 0.768
- relative viability (NCI-H3122; first compound 0.03162 µM): 0.866
- relative viability (NCI-H3122; first compound 0.1 µM): 0.737
- relative viability (NCI-H3122; first compound 0.3162 µM): 0.748
- relative viability (NCI-H3122; first compound 1 µM): 0.758
- relative viability (NCI-H1944; first compound 0.01 µM): 0.855
- relative viability (NCI-H1944; first compound 0.03162 µM): 1.03
- relative viability (NCI-H1944; first compound 0.1 µM): 1.01
- relative viability (NCI-H1944; first compound 0.3162 µM): 1.08
- relative viability (NCI-H1944; first compound 1 µM): 0.893
- relative viability (NCI-H2087; first compound 0.01 µM): 1.18
- relative viability (NCI-H2087; first compound 0.03162 µM): 1.08
- relative viability (NCI-H2087; first compound 0.1 µM): 1.45
- relative viability (NCI-H2087; first compound 0.3162 µM): 1.34
- relative viability (NCI-H2087; first compound 1 µM): 1.27
